Measured values taken from ChEMBL document CHEMBL4334496, “Identification of a Unique Resorcylic Acid Lactone Derivative That Targets Both Lymphangiogenesis and Angiogenesis” (J Med Chem, 2019).
One block for each compound: values may come before it. The source made the active and inactive calls. The rule behind the calls is not given here.

How the values were obtained:
in vitro = conditions: mouse, BA/F3 cells
Description: Growth inhibition of mouse BA/F3 cells assessed as inhibition of cell growth incubated for 72 hrs by Cell-titer-Glo assay

[1] = target: T1, Vascular endothelial growth factor receptor 3 (Homo sapiens, UniProt P35916)
T1 sequence (P35916 whole entry): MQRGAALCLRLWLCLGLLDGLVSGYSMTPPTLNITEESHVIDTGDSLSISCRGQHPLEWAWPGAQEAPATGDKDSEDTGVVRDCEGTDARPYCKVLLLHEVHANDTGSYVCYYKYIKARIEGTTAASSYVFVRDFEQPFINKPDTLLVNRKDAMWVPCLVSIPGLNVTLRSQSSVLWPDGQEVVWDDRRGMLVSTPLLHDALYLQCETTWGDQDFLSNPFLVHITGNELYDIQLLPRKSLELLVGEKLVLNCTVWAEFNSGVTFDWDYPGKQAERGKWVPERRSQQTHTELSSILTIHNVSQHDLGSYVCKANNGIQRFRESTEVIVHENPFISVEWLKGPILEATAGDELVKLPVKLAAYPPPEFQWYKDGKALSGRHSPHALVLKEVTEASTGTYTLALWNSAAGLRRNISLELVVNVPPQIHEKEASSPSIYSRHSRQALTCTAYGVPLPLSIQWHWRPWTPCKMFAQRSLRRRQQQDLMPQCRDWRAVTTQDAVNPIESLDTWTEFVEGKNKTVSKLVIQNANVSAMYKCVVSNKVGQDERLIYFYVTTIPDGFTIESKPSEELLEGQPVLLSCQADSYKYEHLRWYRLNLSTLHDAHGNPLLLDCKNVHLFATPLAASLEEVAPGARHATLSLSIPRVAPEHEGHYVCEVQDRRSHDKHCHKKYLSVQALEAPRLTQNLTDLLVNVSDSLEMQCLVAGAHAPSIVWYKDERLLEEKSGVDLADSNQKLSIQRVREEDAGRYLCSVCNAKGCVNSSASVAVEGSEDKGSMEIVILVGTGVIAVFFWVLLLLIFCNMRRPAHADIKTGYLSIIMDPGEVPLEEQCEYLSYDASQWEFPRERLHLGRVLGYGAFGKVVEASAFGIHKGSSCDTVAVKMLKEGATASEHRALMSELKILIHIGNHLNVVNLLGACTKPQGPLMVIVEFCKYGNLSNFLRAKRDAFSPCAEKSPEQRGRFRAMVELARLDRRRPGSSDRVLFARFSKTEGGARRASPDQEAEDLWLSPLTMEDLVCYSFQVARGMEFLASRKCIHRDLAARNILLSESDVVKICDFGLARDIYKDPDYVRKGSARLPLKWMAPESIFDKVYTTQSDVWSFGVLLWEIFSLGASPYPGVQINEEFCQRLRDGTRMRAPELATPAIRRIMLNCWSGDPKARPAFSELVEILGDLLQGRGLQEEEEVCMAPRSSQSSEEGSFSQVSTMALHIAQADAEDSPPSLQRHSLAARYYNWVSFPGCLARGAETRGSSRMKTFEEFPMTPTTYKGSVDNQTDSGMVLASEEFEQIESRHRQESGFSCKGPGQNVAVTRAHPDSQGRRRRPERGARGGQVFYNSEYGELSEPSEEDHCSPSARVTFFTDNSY
Description: Inhibition of human VEGFR3 using poly[Glu:Tyr] (4:1) substrate and [gamma-33P]-ATP by radiometric biochemical kinase assay

[2] = target: T2, Vascular endothelial growth factor receptor 2 (Homo sapiens, UniProt P35968)
T2 sequence (P35968 whole entry): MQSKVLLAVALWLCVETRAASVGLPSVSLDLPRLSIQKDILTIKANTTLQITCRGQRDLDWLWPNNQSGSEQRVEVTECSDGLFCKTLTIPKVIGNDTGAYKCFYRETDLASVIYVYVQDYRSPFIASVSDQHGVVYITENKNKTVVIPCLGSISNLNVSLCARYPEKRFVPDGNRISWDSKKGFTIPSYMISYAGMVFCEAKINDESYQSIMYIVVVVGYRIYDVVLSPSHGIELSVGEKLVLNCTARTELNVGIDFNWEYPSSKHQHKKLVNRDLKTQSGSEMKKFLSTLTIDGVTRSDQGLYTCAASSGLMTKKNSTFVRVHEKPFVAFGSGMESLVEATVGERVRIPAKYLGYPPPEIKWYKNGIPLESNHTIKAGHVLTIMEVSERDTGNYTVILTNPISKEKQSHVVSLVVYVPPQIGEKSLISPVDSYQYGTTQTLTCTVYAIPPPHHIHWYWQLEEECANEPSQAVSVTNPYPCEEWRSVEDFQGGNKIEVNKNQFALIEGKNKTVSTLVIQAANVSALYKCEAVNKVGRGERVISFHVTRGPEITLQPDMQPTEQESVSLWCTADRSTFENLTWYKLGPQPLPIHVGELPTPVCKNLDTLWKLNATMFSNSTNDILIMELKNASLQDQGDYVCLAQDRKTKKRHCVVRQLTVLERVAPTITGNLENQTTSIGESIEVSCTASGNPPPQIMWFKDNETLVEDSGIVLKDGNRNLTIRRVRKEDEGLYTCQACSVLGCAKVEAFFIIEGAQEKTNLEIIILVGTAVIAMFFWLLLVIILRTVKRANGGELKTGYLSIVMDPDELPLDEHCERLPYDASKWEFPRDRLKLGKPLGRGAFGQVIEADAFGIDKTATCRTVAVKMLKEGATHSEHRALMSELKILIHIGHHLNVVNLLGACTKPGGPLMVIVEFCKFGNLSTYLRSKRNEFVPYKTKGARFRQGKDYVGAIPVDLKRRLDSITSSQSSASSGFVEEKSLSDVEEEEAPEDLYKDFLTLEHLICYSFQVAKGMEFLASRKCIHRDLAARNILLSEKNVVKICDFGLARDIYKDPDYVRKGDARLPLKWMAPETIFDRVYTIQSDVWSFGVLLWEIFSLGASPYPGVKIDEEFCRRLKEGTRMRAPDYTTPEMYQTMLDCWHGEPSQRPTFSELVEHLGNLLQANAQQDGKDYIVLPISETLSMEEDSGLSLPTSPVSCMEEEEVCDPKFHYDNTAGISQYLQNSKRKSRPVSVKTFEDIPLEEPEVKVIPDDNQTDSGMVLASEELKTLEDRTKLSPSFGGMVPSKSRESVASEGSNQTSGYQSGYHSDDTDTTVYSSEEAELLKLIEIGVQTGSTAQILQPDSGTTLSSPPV
Description: Inhibition of human VEGFR2 using poly[Glu:Tyr] (4:1) substrate and [gamma-33P]-ATP by radiometric biochemical kinase assay

[3] = target: T2, Vascular endothelial growth factor receptor 2; remark: listed apart in the source
Description: Inhibition of TEL-fused VEGFR2 (unknown origin) expressed in mouse BA/F3 cells assessed as inhibition of cell growth incubated for 72 hrs by Cell-titer-Glo assay

[4] = target: T1, Vascular endothelial growth factor receptor 3; remark: listed apart in the source
Description: Inhibition of TEL-fused VEGFR3 (unknown origin) expressed in mouse BA/F3 cells assessed as inhibition of cell growth incubated for 72 hrs by Cell-titer-Glo assay

[5] = target: c-Kit (Mast/stem cell growth factor receptor Kit) (Homo sapiens, UniProt P10721); experiment: Inhibition of human c-Kit assessed as enzyme residual activity at 10 uM using poly[Glu:Tyr] (4:1) substrate and [gamma-33P]-ATP by radiometric biochemical kinase assay relative to control; conditions: probe poly[Glu:Tyr] (4:1), read-out: Activity
Chain of c-Kit (Mast/stem cell growth factor receptor Kit) (P10721 whole entry): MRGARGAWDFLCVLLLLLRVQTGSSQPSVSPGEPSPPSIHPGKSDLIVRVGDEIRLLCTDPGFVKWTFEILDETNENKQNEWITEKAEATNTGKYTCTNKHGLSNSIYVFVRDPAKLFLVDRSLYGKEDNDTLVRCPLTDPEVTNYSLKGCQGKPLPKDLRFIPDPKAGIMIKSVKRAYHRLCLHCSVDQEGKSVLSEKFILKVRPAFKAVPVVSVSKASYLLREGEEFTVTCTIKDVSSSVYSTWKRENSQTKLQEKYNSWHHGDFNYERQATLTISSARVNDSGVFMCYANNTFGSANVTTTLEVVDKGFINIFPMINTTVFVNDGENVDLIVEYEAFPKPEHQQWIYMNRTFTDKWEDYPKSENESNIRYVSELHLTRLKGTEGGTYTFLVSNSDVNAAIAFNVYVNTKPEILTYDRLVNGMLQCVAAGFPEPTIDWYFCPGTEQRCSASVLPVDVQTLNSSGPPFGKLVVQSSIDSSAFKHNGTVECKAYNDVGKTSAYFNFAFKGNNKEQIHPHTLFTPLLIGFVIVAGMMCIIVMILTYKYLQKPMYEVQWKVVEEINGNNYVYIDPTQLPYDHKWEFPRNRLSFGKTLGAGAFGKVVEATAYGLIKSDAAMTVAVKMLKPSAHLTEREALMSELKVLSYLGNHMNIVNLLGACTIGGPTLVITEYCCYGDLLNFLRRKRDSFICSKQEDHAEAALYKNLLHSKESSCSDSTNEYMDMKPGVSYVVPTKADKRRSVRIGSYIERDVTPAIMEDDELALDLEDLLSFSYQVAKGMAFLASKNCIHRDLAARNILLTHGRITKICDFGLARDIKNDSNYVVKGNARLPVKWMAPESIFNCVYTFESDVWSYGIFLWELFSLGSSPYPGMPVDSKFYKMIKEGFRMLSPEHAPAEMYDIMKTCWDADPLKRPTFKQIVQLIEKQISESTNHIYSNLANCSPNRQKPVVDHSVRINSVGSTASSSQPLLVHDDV

Mus musculus [6] = experiment: Anti-lymphangiogenic activity in C57BL/6 mouse assessed as suppression of suture-induced corneal lymphangiogenesis at 200 nM administered topically every 12 hrs for 7 days by immunohistochemical analysis; assay type: functional, organism-based
MOLM-14 [7] = experiment: Induction of apoptosis in human MOLM14 cells assessed as induction of PARP cleavage at 0.1 to 1 uM incubated for 24 hrs by Western blot analysis; assay type: functional, cell-based
[8] = Toxicity in C57BL/6 mouse assessed as induction of clinically detectable corneal-epitheliopathy at 200 nM administered topically every 12 hrs for 7 days by immunohistochemical analysis; conditions: in vivo, topical_or_ocular, 0.2 µM
Mus musculus [9] = experiment: Anti-angiogenesis activity in C57BL/6 mouse assessed as suppression of suture-induced corneal angiogenesis at 200 nM administered topically every 12 hrs for 7 days by immunohistochemical analysis; assay type: functional, organism-based
[10] = target: T3, Vascular endothelial growth factor receptor 1 (Homo sapiens, UniProt P17948); experiment: Inhibition of human VEGFR1 assessed as enzyme residual activity at 10 uM using poly[Glu:Tyr] (4:1) substrate and [gamma-33P]-ATP by radiometric biochemical kinase assay relative to control
T3 sequence (P17948 whole entry): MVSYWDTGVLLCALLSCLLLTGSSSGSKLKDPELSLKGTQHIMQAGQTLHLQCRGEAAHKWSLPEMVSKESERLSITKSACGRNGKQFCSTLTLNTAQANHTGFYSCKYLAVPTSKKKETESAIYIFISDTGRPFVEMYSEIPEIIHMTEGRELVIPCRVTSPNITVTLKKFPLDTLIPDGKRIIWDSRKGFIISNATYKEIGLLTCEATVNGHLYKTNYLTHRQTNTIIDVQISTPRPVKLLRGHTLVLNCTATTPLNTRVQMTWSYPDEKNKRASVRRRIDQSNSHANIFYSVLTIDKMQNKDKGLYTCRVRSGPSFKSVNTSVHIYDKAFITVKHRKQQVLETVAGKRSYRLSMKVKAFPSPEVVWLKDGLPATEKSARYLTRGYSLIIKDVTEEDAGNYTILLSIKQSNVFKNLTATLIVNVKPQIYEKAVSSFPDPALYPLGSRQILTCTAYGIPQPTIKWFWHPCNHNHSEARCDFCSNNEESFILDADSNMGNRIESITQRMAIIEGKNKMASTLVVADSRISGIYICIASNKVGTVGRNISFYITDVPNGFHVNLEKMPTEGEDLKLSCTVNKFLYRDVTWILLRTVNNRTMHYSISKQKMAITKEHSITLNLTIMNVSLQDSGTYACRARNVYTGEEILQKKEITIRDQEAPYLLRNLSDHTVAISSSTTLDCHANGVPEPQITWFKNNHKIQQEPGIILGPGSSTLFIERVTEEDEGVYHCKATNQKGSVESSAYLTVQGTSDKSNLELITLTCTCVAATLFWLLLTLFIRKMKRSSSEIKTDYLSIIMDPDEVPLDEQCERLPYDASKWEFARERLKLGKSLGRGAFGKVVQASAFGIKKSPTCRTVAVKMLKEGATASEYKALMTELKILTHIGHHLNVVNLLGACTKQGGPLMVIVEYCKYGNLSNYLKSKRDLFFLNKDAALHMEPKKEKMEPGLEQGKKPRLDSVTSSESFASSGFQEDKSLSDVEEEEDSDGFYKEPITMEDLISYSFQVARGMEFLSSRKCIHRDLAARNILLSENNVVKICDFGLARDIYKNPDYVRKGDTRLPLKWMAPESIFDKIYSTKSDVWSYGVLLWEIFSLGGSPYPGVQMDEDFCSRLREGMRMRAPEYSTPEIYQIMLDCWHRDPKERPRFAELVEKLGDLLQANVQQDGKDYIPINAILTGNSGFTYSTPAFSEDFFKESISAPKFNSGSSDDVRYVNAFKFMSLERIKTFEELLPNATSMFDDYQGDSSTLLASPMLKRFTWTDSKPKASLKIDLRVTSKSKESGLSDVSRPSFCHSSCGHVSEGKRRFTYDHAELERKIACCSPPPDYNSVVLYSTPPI

MOLM-14 [11] = experiment: Induction of apoptosis in human MOLM14 cells at 0.1 uM incubated for 24 hrs by propidium iodide and annexin-V staining based flow cytometry; assay type: functional, cell-based
MV4-11 [12] = experiment: Induction of apoptosis in human MV4-11 cells assessed as induction of caspase-3 cleavage at 0.1 to 1 uM incubated for 24 hrs by Western blot analysis; assay type: functional, cell-based
Homo sapiens [13] = species on record: Homo sapiens; experiment: Anti-lymphangiogenic activity in HDLEC assessed as reduction in human A375 cells-induced lymphatic sprouting at 1 to 10 uM incubated for 4 days by Hoechst 33342 and phalloidin staining based microfluidic platform assay relative to control; assay type: functional, cell-based
HUVEC [14] = experiment: Anti-angiogenesis activity in HUVEC assessed as inhibition of VEGF-A-induced tube formation at 0.1 uM incubated for 6 hrs by tube formation assay; assay type: functional, cell-based; conditions: Homo sapiens
[15] = target: Mast/stem cell growth factor receptor Kit (Homo sapiens, UniProt P10721); experiment: Inhibition of c-Kit phosphorylation in human TF1 cells assessed as at 0.1 to 0.3 uM incubated for 2 hrs by Western blot analysis; assay type: cell-based
Chain of Mast/stem cell growth factor receptor Kit (P10721 whole entry): as the sequence (P10721 whole entry) above

[16] = target: T3, Vascular endothelial growth factor receptor 1; experiment: Inhibition of human VEGFR1 using poly[Glu:Tyr] (4:1) substrate and [gamma-33P]-ATP by radiometric biochemical kinase assay
HUVEC [17] = experiment: Anti-angiogenesis activity in truncated-FOSB transfected HUVEC cells model of pseudomyogenic-hemangioendothelioma assessed as inhibition of cell proliferation; assay type: functional, cell-based; conditions: Homo sapiens
MV4-11 [18] = experiment: Induction of apoptosis in human MV4-11 cells assessed as induction of PARP cleavage at 0.1 to 1 uM incubated for 24 hrs by Western blot analysis; assay type: functional, cell-based
MOLM-14 [19] = experiment: Induction of apoptosis in human MOLM14 cells assessed as induction of caspase-3 cleavage at 0.1 to 1 uM incubated for 24 hrs by Western blot analysis; assay type: functional, cell-based
MV4-11 [20] = experiment: Induction of apoptosis in human MV4-11 cells at 0.1 uM incubated for 24 hrs by propidium iodide and annexin-V staining based flow cytometry; assay type: functional, cell-based
Homo sapiens [21] = species on record: Homo sapiens; experiment: Anti-lymphangiogenic activity in HDLEC assessed as reduction in human MIAPaCa-2 cells-induced lymphatic sprouting at 1 to 10 uM incubated for 4 days by Hoechst 33342 and phalloidin staining based microfluidic platform assay relative to control; assay type: functional, cell-based
HUVEC [22] = experiment: Anti-angiogenesis activity in HUVEC assessed as inhibition of VEGF-A-induced cell migration at 0.1 uM incubated for 12 hrs by wound healing assay; assay type: functional, cell-based; conditions: Homo sapiens
HUVEC [23] = experiment: Anti-angiogenesis activity in truncated-FOSB transfected HUVEC cells model of pseudomyogenic-hemangioendothelioma assessed as inhibition of tube formation; assay type: functional, cell-based; conditions: Homo sapiens
[24] = target: T4, Receptor-type tyrosine-protein kinase FLT3 (Homo sapiens, UniProt P36888)
T4 sequence (P36888 whole entry): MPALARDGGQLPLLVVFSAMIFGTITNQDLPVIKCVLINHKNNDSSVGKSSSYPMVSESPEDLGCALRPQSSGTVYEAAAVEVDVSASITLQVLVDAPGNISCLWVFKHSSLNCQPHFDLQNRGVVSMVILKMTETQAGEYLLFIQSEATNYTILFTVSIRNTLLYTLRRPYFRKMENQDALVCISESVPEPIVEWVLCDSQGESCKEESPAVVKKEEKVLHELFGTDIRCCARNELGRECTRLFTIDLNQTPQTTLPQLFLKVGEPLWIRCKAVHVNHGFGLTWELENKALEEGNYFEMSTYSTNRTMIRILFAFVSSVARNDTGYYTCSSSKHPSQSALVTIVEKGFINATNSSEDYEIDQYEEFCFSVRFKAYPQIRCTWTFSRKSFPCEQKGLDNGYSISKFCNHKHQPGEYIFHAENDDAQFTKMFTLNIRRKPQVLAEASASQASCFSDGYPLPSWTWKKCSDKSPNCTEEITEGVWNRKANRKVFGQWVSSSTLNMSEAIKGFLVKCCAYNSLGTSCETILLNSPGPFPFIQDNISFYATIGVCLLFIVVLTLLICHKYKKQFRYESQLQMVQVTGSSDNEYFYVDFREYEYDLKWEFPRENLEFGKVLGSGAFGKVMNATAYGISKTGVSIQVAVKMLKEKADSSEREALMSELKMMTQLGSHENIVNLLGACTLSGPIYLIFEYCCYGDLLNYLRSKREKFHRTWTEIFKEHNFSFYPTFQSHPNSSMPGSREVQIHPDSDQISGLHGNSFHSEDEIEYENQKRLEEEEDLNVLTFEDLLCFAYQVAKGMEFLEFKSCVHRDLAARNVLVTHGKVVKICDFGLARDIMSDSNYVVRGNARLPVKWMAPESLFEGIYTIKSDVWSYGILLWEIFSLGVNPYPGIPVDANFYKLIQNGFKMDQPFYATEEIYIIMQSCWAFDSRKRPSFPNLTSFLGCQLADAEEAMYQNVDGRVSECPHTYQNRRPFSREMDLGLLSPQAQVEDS

HUVEC [25] = experiment: Anti-angiogenesis activity in truncated-FOSB transfected HUVEC cells model of pseudomyogenic-hemangioendothelioma assessed as inhibition of tube formation up to 5 uM; assay type: functional, cell-based; conditions: Homo sapiens
[26] = target: Receptor-type tyrosine-protein kinase FLT3 (Homo sapiens) (UniProt P36888)
Description: Inhibition of TEL-fused FLT3 (unknown origin) expressed in mouse BA/F3 cells assessed as inhibition of cell growth incubated for 72 hrs by Cell-titer-Glo assay

Homo sapiens [27] = species on record: Homo sapiens; experiment: Anti-lymphangiogenic activity in HDLEC assessed as reduction in growth factor cocktail-induced lymphatic sprouting at 10 uM incubated for 4 days by Hoechst 33342 and phalloidin staining based microfluidic platform assay relative to control; assay type: functional

Structure (SMILES): C=C1/C=C\C[C@H](C)OC(=O)c2c(O)cc(OC)cc2-c2cccc(c2)[C@@H](O)[C@@H]1O
GI50 at 72 h (in vitro): > 25 µM | IC50 [1]: > 10 µM | IC50 [2]: > 10 µM | GI50 [3]: > 25 µM | GI50 [4]: > 25 µM

Structure (SMILES): COc1cc(O)c2c(c1)-c1cccc(c1)[C@@H](O)[C@H](O)C(=O)/C=C\C[C@H](C)OC2=O
activity at 10 µM [5]: 82.2% | Activity (Mus musculus [6]): Active | Activity (MOLM-14 [7]): Active | Activity [8]: Non-Toxic | GI50 at 72 h (in vitro): 10 µM | Activity (Mus musculus [9]): Active | Activity [10]: 36.6% | Activity (MOLM-14 [11]): Active | Activity (MV4-11 [12]): Active | Activity (Homo sapiens [13]): Active | inhibition (HUVEC [14]): Active | inhibition (INH) [15]: Not Active | IC50 [16]: 0.845 µM | Activity (HUVEC [17]): Dose-dependent effect | Activity (MV4-11 [18]): Active | Activity (MOLM-14 [19]): Active | Activity (MV4-11 [20]): Active | Activity (Homo sapiens [21]): Active | inhibition (HUVEC [22]): Active | Activity (HUVEC [23]): Dose-dependent effect

Structure (SMILES): CCn1c(N)c(C(=O)NC)c(=O)c2ccc(C#C[C@@](C)(O)COC)nc21
Activity (Mus musculus [6]): Active | IC50 [24]: 0.29 µM | Activity [8]: Non-Toxic | GI50 at 72 h (in vitro): > 25 µM | IC50 [1]: 0.0012 µM | IC50 [2]: 0.067 µM | Activity (HUVEC [25]): inactive | inhibition (HUVEC [14]): inactive | GI50 [3]: 4.6 µM | GI50 [26]: 18 µM | fold change (FC) (Homo sapiens [27]): 2 | GI50 [4]: 0.059 µM | inhibition (HUVEC [22]): inactive

Structure (SMILES): COc1cc(O)c2c(c1)-c1cccc(c1)CCC(=O)/C=C\C[C@H](C)OC2=O
GI50 at 72 h (in vitro): > 25 µM

Structure (SMILES): COc1cc(O)c2c(c1)-c1cccc(c1)[C@@H](O)[C@H](O)[C@H](O)/C=C\C[C@H](C)OC2=O
GI50 at 72 h (in vitro): > 25 µM

Structure (SMILES): COc1cc(O)c2c(c1)-c1cccc(c1)[C@@H](O)[C@H](O)[C@@H](N)/C=C\C[C@H](C)OC2=O
GI50 at 72 h (in vitro): > 25 µM | IC50 [1]: > 10 µM | IC50 [2]: > 10 µM | GI50 [3]: > 25 µM | GI50 [26]: > 25 µM | GI50 [4]: > 25 µM

Structure (SMILES): COc1cc(O)c2c(c1)CCC[C@H](O)[C@H](O)C(=O)/C=C\C[C@H](C)OC2=O
IC50 [24]: 0.0018 µM | GI50 at 72 h (in vitro): 1.7 µM | IC50 [1]: 0.00073 µM | IC50 [2]: 0.0029 µM | GI50 [3]: 0.14 µM | GI50 [26]: 0.27 µM | GI50 [4]: 0.05 µM

The remaining lines, values ahead:

GI50 at 72 h (in vitro): > 25 µM
Structure (SMILES): COc1cc(O)c2c(c1)-c1cccc(c1)[C@H](O)[C@H](O)C(=O)CCC[C@H](C)OC2=O

GI50 at 72 h (in vitro): 11 µM
Structure (SMILES): COc1cc(O)c2c(c1)-c1cccc(c1)[C@@H](O)[C@H](O)C(=O)C/C=C/[C@H](C)OC2=O

GI50 at 72 h (in vitro): 12 µM
Structure (SMILES): COc1cc(O)c2c(c1)-c1cccc(c1)[C@H](O)[C@H](O)C(=O)/C=C\C[C@H](C)OC2=O

GI50 at 72 h (in vitro): > 25 µM
Structure (SMILES): COc1cc(O)c2c(c1)-c1cccc(c1)[C@@H](O)[C@H](O)C(=O)CCC[C@H](C)OC2=O

GI50 at 72 h (in vitro): 17 µM
Structure (SMILES): COc1cc(O)c2c(c1)-c1cccc(c1)[C@H](O)[C@@H](O)C(=O)/C=C\C[C@H](C)OC2=O

GI50 at 72 h (in vitro): > 25 µM
Structure (SMILES): COc1cc(O)c2c(c1)-c1cccc(c1)[C@H](O)[C@@H](O)C(=O)CCC[C@H](C)OC2=O
